From patent US5462927A, “Peptides aiding nerve regeneration” (The Administrators of the Tulane Educational Fund, priority 1992, dated 1995)
Like-named read-outs stand apart in the source and are kept apart here. Square brackets hold non-standard residues; d marks the D form. Peptide text beside a SMILES is read from it.

What was measured:
Assay type in all cases: in vivo, rat
crushed peroneal nerve = assay: Walking test (locomotor pattern, toespread) after peroneal nerve crush
Method: (§1) The effect of BIM-22015 regeneration of the crushed peroneal nerve in the rat was assessed using both morphological and physiological studies, as follows. Both locomotor pattern and endplate morphology during the early stages of crushed nerve regeneration were assessed after treatment with BIM-220150 Adult Sprague-Dawley male rats (Taconic Farms) were maintained at 25° C. on a 12 hour light and a 12 hour dark cycle and were supplied with standard rat chow and water ad lib. All surgery was performed under anesthesia with 8% chlorohydrate (0.6 ml/100 g I.P.). Denervation was accomplished using a #5 Dumont forceps with a uniformly filed tip to crush the peroneal nerve. This crush produced a 1 mm wide lesion just proximal to the EDL (extention digitarum longus) muscle. The wound was closed with surgical staples. Following surgery, the animal was immediately administered saline or BIM-22015 in one of the following dosages: (1) 0.9% saline, (2) 10.0 ug BIM-22015, (3) 5.0 ug BIM-22015, (3) 1.0 ug BIM-22015, or (4) 0.1 ug BIM-22015 (per animal). Administration continued once every 48 hours for 5 days; on day 5, the rats were killed and tissues taken for morphological analysis. All injections and surgeries occurred between 10:00 and 12:00 noon.
Locomotor pattern was tested by measuring the walking pattern of the animal. The animal was allowed to walk up a 20° inclined platform. The track was well-lit by fluorescent tubes and a dark box was placed at the end of the track. This dark and light differences was used to entice the animal to walk up the track. […] The distance between the first and fifth digit was determined using a Manostat mechanical caliper (type 6911) with accuracy of ±0.005 mm0 The contralateral foot was used as a control to negate the size differences in individual animals. The Student T test was used to determine the statistical differences, and data were expressed as means of the six sharpest toespreads and the standard error of the mean (using 95% confidence formula), standard deviation, and variances.

[1] = tested on: sectioned sciatic nerve; common extensor muscle of the fingers; settings: for Muscle Tetnus: Fatigue / Muscle Tetnus: Muscle Strength / Muscle Tetnus: Muscle Strength Normalized to Muscle Weight / Muscle Tetnus: Speed of Contraction / Muscle Tetnus: Speed of Relaxation / Tetanic Strength/Single Pulse Strength: 35d. p.o.p.
[2] = tested on: sectioned sciatic nerve; common extensor muscle of the finger; assay: Muscle weight after sciatic nerve section; settings: for Muscle weight Normalized to Mean Animal Weight: 35d. p.o.
[3] = tested on: crushed peroneal nerve; endplates of the EDL; assay: Endplate morphology of EDL muscle after peroneal nerve crush (silver-cholinesterase stain)
Method: as §1
Morphological studies of crushed nerve regeneration were performed as follows. On day 5, the rats were anesthetized with 8% chlorohydrate (0.6 ml/100 g IP) before surgery. The animal was placed ventral side down and a skin incision was made on the hindlimb from the lateral epicondyle of the femur to the lateral malleolus in the ankle. The extensor digitorium longus muscle (EDL) was then carefully exposed from its surrounding connective tissue and extreme care taken to preserve the blood supply. The EDL is a heterogenous muscle consisting of both fast white muscle fibers and slow red muscle fibers. It is classified as a fast muscle based upon its isometric twitch parameters. The origin of the EDL is the epicondyle of the femur to the distal tendon which divides into four parts with insertions into the third phalange base of the second to the fifth digits. It is innervated by the peroneal nerve and its blood is supplied by the anterior tibial artery. The muscle was prepared for staining as follows.
The silver-cholinesterase method of staining of Pecot-Dechavssine et al. (1979 Stain. Technol. 54:25) was used to stain the endplates, or neuromuscular junctions, of the EDL. Briefly, the muscle was fixed in situ by 1% neutral formalin in normal Ringer's solution. The muscle was then excised and placed in fresh 1% neutral formalin solution for extra 3-4 minutes. The endplates were localized with the stain described by Karnovsky et al. (1964, J. Hist. Chem. Cytochem. 12:219) for 7-15 minutes under visual control. After localization, the EDL was soaked in 5% neutral formalin solution for 20 minutes, then washed in Triton X-100 detergent for 1 hour. After the detergent step, the EDL was fixed in 80% ethanol solution for 1 hour. Finally, the endplates were impregnated with silver using 0.5% protargol solution overnight (12-30 hrs., at 37° C.).
The following day, the excess silver was reduced using a Bodian developer for 18 minutes. The muscle was rinsed in distilled water, finely teased, and mounted using a glycoglyerol mounting gel.
The endplates were observed using Olympus BH series binocular microscope at a magnification of 100× using an oil immersion objective lens. A low light sensitive video camera mounted on top of the Olympus projected the slide onto a black and white monitor. A Bioquant image digitizer with a manual optic mouse was used to determine the following parameters: (1) endplate […], (2) endplate area, (3) endplate internal branching, and (4) muscle fiber diameter. The Bioquant statistical package was used to determine statistical differences, and the data are expressed as means and standard error of the mean. The Student's t-test and the ANOVA statistical tests were performed. […]

[4] = Group 3 (topical in tissucol, lower dose)
[5] = Group 4 (s.c. 5ug.kg.day for 18 days)
[6] = Group 2: Tissue col 10.0 μg/0.5 ml (topical)
[7] = Group 3: Tissue col 1.1 μg/10.5 ml (topical)
[8] = Group 4: s.c. 5 μg 1 kg/day (18 days)
[9] = BIM 0.1 μG per animal every 48 hours, day 5, A = p < 0.025
[10] = BIM 0.1 μG per animal every 48 hours, day 5, A = p < 0.025, listed as BIM
[11] = BIM 1.0 μG per animal every 48 hours, day 5
[12] = BIM 5.0 μG per animal every 48 hours, day 5
[13] = BIM 10.0 μG per animal every 48 hours, day 5

For `C[C@@H](N)C(=O)N[C@@H](CCC(N)=O)C(=O)N[C@@H](Cc1ccc(O)cc1)C(=O)N[C@@H](Cc1ccccc1)C(=O)N[C@@H](CCCNC(=N)N)C(=O)N[C@@H](Cc1c[nH]c2ccccc12)C(=O)NCC(N)=O` [BIM-22015, D--Ala--Gln--Tyr--Phe--Arg--Trp--Gly--NH2] (H-[dA]QYFRWG-NH2), the “recovery rate of locomotion (walking test)” value (crushed peroneal nerve; 0.1 μg per animal, once every 48 hours, days 3-5 after surgery, not statistically significant) was “very consistent upward recovery rate”, the “optimal dosage (walking test)” value (crushed peroneal nerve; dosages 0.1-10.0 ug per animal compared) was 0.1 µg and the “recovery rate of locomotion (walking test)” value (crushed peroneal nerve; the other dosages (above 0.1 μg) vs saline control) was “outperformed the saline control animal but only by a slight margin”. The “Muscle Tetnus: Fatigue” value ([1]; Group 2 (topical in tissucol)) was 73,80%, the “Muscle Tetnus: Muscle Strength” value ([1]; Group 2 (topical in tissucol)) was 61,83 g and the “Muscle Tetnus: Muscle Strength Normalized to Muscle Weight” value ([1]; Group 2 (topical in tissucol)) was 0,91 g/ug. For the same compound, the “Muscle Tetnus: Speed of Contraction” value ([1]; Group 2 (topical in tissucol)) was 2409 g/ms, the “Muscle Tetnus: Speed of Relaxation” value ([1]; Group 2 (topical in tissucol)) was 2034 g/ms and the “Tetanic Strength/Single Pulse Strength” value ([1]; Group 2 (topical in tissucol)) was 307,50%. The “Muscle Tetnus: Fatigue” value [1, 4] was 75,55%, the “Muscle Tetnus: Muscle Strength” value [1, 4] was 51,55 g and the “Muscle Tetnus: Muscle Strength Normalized to Muscle Weight” value [1, 4] was 0,84 g/ug. The “Muscle Tetnus: Speed of Contraction” value [1, 4] was 1737 g/ms, the “Muscle Tetnus: Speed of Relaxation” value [1, 4] was 884 g/ms and the “Tetanic Strength/Single Pulse Strength” value [1, 4] was 343,00%. The “Muscle Tetnus: Fatigue” value [1, 5] was 72,12%, the “Muscle Tetnus: Speed of Contraction” value [1, 5] was 5507 g/ms and the “Muscle Tetnus: Speed of Relaxation” value [1, 5] was 4226 g/ms. For the same compound, the “Tetanic Strength/Single Pulse Strength” value [1, 5] was 347,12%, the “fatigability of the muscle” value ([1]; rat, in vivo) was “no effect” and the “improvement of muscle strength over control group 1 (column 2, Table 3)” value ([1]; rat, in vivo, sc) was 30%. The “Muscle Weight 35d. p.o.” value [2, 6] was 67.9 µg, the “Muscle weight Normalized to Mean Animal Weight” value [2, 6] was 0.211 and the “Muscle Weight 35d. p.o.” value [2, 7] was 59.7 µg. For the same compound, the “Muscle weight Normalized to Mean Animal Weight” value [2, 7] was 0.212, the “Muscle Weight 35d. p.o.” value [2, 8] was 73.1 µg and the “Muscle weight Normalized to Mean Animal Weight” value [2, 8] was 0.226. The “improvement of muscle weight normalized to mean animal weight over the control group 1” value ([2]; group 4 (s.c. administration), not statistically significant) was 15%, the “improvement of muscle weight normalized to mean animal weight over the control group 1” value ([2]; groups 2 and 3 (topical in tissucol)) was “little improvement” and the “effect on muscle measurements by route of administration” value ([2]; topical administration (groups 2 and 3)) was “largely ineffective”. The “Endplate Morphology: Muscle Fiber Diameter” value ([3]; BIM 0.1 μG per animal every 48 hours, day 5) was 63.6(2.72), the “Endplate Morphology: Internal Branching” value [3, 9] was “significant increase” and the “Endplate Morphology: Perimeter” value [3, 9] was “significant increase”. The “Endplate Morphology: Internal Branching” value [3, 10] was 260.5(39.2), the “Endplate Morphology: Perimeter” value [3, 10] was 244.3(8.63) and the “Endplate Morphology: Internal Branching” value [3, 11] was 201.6(14.2). The “Endplate Morphology: Perimeter” value [3, 11] was 231.7(5.22), the “Endplate Morphology: Muscle Fiber Diameter” value ([3]; BIM 1.0 μG per animal every 48 hours, day 5, C = p < 0.005) was “high muscle hypertrophy” and the “Endplate Morphology: Muscle Fiber Diameter” value ([3]; BIM 1.0 μG per animal every 48 hours, day 5, C = p < 0.005, listed as BIM) was 76.9(1.70). The “Endplate Morphology: Internal Branching” value [3, 12] was 220.2(18.7), the “Endplate Morphology: Muscle Fiber Diameter” value [3, 12] was 74.2(2.35) and the “Endplate Morphology: Perimeter” value ([3]; BIM 5.0 μG per animal every 48 hours, day 5, B = p < 0.050) was “significant increase”. For the same compound, the “Endplate Morphology: Perimeter” value ([3]; BIM 5.0 μG per animal every 48 hours, day 5, B = p < 0.050, listed as BIM) was 204.2(5.98), the “Endplate Morphology: Internal Branching” value [3, 13] was 173.2(14.6) and the “Endplate Morphology: Perimeter” value [3, 13] was 231.7(12.2). For the same compound, the “Endplate Morphology: Muscle Fiber Diameter” value ([3]; BIM 10.0 μG per animal every 48 hours, day 5, C = p < 0.005) was “high muscle hypertrophy” and the “Endplate Morphology: Muscle Fiber Diameter” value ([3]; BIM 10.0 μG per animal every 48 hours, day 5, C = p < 0.005, listed as BIM) was 82.8(3.74).
